Laboratory results: PMC11513893, “Discovery of Oral Degraders of the ROS1 Fusion Protein with Potent Activity against Secondary Resistance Mutations” (Journal of Medicinal Chemistry, 2024)

How the values were obtained:
[1] = test system: Ba/F3 ROS1-G2032R; assay: Antiproliferation assay; type: cell-based, mouse; settings: Mus musculus, BaF3; Ba/F3 cells, cell growth inhibition, 72 h
[2] = test system: Ba/F3 ROS1 (SLC34A2) F2075C-G1837E; assay: Antiproliferation assay; type: cell-based; settings: Mus musculus, BaF3; Ba/F3 cell line
Procedure: (§1) Ba/F3 immortalized murine bone marrow–derived pro-B cells were obtained from Creative Biogene (Shirley, NY) and cultured in RPMI supplemented with 10% FBS and IL3 (0.5 ng/mL). Ba/F3 cells expressing ROS1 variants were maintained in RPMI supplemented with 10% FBS and puromycin (0.7 mg/mL). Crizotinib, ceritinib, brigatinib, repotrectinib, and lorlatinib were purchased from MedChem Express. Each compound was dissolved in DMSO and serially diluted in RPMI for cell culture experiments.
(§2) To assess the 72 h effect of drug treatment on cell proliferation, 2000 to 3000 cells were plated in replicates of three in 96-well plates. The plates were placed in an incubator at 37 °C, 5% CO2 for 72 h. Following drug treatments, the cells were incubated with the Alamar Blue Assay reagent (BioRad), 5 μL each well for 4 h at 37 °C and 5% CO2. Luminescence was measured on a multiplate reader and analyzed. […] IC50 values were determined using a nonlinear regression model with a sigmoidal dose response in GraphPad. The data were collected based on triplicate experiments, and presented as mean ± SD.

[3] = test system: Ba/F3 ROS1 (SLC34A2) G2032R-D2113G; assay: Antiproliferation assay; type: cell-based; settings: Mus musculus, BaF3; Ba/F3 cell line
Procedure: as §1, §2

[4] = test system: Ba/F3 ROS1 (SLC34A2) G2032R-F2075C; assay: Antiproliferation assay; type: cell-based; settings: Mus musculus, BaF3; Ba/F3 cell line
Procedure: as §1, §2

[5] = Log P measurement; type: physicochemical
Text: An important physicochemical property for a PROTAC molecule is its lipophilicity that largely dictates its pharmaceutical performance such as absorption, permeability, and distribution.

[6] = target: ROS1 (G2101A) (Homo sapiens, UniProt P08922, G2101A); assay: Kinase assay; type: biochemical; settings: average of duplicate measurements
[7] = target: PTK2B (Homo sapiens, UniProt Q14289); assay: Kinase assay; type: biochemical; settings: average of duplicate measurements
[8] = target: T1, CLK1 (Homo sapiens, UniProt P49759); assay: Kinase assay; type: biochemical; settings: average of duplicate measurements
T1 sequence (P49759 whole entry): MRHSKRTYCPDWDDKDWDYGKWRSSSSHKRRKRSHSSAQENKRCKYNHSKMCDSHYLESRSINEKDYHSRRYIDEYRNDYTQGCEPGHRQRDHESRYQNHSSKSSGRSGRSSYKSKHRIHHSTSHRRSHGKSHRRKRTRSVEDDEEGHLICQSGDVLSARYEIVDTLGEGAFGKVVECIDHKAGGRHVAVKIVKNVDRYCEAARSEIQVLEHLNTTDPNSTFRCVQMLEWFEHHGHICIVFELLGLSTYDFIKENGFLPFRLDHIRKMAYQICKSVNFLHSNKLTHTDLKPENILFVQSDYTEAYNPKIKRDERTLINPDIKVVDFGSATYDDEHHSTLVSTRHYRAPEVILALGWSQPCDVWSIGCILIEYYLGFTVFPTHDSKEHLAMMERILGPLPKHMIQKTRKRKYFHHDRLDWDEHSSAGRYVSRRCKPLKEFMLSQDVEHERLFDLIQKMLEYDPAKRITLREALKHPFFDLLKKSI

[9] = target: T2, ERBB2 (Homo sapiens, UniProt P04626); assay: Kinase assay; type: biochemical; settings: average of duplicate measurements
T2 sequence (P04626 23-1255, species assumed): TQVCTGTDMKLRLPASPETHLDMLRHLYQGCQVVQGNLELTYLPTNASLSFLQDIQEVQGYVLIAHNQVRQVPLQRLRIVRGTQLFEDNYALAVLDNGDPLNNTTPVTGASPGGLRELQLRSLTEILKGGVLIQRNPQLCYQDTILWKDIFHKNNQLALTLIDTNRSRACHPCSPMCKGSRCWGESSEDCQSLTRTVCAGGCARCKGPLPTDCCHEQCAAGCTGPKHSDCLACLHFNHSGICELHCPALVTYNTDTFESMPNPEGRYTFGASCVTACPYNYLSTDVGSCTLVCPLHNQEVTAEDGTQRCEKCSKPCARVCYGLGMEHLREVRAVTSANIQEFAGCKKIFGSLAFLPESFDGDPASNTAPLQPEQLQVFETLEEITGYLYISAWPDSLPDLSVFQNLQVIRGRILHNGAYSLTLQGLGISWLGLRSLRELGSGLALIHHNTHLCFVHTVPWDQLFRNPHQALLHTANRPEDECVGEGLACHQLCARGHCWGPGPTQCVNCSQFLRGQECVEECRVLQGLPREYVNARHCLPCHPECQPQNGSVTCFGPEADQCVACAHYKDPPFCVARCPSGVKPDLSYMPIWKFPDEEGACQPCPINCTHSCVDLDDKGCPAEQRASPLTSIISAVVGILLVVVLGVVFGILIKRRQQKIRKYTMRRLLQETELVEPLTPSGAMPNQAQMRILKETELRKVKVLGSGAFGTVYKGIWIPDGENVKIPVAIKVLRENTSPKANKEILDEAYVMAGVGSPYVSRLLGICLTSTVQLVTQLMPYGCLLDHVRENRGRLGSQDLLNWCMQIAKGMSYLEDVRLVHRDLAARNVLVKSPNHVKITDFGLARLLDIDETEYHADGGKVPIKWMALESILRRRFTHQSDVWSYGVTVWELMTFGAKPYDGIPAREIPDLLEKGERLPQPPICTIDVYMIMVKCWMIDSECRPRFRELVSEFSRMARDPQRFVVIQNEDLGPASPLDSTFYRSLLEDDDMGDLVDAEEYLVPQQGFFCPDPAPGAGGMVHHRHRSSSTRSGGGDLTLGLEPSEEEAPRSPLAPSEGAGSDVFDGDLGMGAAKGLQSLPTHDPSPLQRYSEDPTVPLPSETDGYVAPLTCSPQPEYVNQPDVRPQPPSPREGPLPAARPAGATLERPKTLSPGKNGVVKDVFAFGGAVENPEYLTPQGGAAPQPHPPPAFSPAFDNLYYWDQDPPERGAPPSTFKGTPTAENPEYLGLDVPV

[10] = target: CAMK2G (Homo sapiens, UniProt Q13555); assay: Kinase assay; type: biochemical; settings: average of duplicate measurements
[11] = target: T3, LTK (Homo sapiens, UniProt P29376); assay: Kinase assay; type: biochemical; settings: average of duplicate measurements
T3 sequence (P29376 17-864, species assumed): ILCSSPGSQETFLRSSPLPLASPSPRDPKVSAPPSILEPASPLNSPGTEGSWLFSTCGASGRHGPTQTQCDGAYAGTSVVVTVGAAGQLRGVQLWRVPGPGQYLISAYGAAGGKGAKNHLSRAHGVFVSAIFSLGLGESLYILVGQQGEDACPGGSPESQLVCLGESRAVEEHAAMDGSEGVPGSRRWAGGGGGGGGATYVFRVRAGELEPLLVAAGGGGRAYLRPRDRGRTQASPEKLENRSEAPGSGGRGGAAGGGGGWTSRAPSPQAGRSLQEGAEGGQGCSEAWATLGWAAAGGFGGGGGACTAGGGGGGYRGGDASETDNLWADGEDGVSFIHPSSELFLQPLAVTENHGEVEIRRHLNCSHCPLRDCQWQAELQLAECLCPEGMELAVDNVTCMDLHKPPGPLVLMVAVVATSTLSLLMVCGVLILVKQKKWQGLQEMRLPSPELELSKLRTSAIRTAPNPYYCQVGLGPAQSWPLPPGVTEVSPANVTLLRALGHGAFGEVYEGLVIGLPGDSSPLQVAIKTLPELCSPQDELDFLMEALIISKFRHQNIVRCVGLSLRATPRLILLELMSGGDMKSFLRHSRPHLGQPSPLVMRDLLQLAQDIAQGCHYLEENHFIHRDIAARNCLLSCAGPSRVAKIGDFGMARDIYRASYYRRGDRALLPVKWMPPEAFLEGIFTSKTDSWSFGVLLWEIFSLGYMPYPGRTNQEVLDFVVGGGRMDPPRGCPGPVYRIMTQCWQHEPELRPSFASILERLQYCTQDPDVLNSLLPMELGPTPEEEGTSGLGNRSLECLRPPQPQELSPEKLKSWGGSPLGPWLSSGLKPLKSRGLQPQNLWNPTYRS

[12] = target: T4, EGFR (Homo sapiens, UniProt P00533); assay: Kinase assay; type: biochemical; settings: average of duplicate measurements
T4 sequence (P00533 25-1210, species assumed): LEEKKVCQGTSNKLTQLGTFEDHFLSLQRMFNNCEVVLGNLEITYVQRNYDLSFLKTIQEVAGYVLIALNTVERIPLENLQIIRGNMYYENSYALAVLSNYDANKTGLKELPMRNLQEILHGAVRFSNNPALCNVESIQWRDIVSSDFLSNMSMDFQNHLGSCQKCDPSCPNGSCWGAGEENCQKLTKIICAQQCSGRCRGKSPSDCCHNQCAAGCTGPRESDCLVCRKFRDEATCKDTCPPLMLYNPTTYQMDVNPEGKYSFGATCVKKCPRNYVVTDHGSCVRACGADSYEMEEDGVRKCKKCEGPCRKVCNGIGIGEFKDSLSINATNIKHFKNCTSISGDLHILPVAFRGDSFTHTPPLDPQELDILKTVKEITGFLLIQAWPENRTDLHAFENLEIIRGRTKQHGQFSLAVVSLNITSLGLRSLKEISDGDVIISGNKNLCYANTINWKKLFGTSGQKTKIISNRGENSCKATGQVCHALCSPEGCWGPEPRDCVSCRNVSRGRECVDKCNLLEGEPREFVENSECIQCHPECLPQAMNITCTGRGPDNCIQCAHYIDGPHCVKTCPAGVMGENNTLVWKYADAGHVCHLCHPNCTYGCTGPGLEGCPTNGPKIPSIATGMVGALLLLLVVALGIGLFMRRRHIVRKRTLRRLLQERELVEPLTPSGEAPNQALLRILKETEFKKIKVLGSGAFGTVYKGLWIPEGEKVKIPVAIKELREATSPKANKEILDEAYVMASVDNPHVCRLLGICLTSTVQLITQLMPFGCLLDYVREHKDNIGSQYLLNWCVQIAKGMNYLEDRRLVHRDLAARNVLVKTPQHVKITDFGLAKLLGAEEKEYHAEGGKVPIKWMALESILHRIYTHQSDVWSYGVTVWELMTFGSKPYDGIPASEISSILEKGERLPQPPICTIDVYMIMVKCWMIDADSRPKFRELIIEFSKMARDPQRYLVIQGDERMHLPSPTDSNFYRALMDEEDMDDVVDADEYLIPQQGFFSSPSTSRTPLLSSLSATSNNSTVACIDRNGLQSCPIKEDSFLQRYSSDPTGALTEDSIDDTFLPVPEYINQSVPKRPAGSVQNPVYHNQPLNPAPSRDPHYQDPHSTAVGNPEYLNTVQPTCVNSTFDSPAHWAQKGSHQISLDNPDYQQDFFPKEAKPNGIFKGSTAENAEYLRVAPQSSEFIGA

[13] = target: T5, RET (Homo sapiens, UniProt P07949); assay: Kinase assay; type: biochemical; settings: average of duplicate measurements
T5 sequence (P07949 29-1114, species assumed): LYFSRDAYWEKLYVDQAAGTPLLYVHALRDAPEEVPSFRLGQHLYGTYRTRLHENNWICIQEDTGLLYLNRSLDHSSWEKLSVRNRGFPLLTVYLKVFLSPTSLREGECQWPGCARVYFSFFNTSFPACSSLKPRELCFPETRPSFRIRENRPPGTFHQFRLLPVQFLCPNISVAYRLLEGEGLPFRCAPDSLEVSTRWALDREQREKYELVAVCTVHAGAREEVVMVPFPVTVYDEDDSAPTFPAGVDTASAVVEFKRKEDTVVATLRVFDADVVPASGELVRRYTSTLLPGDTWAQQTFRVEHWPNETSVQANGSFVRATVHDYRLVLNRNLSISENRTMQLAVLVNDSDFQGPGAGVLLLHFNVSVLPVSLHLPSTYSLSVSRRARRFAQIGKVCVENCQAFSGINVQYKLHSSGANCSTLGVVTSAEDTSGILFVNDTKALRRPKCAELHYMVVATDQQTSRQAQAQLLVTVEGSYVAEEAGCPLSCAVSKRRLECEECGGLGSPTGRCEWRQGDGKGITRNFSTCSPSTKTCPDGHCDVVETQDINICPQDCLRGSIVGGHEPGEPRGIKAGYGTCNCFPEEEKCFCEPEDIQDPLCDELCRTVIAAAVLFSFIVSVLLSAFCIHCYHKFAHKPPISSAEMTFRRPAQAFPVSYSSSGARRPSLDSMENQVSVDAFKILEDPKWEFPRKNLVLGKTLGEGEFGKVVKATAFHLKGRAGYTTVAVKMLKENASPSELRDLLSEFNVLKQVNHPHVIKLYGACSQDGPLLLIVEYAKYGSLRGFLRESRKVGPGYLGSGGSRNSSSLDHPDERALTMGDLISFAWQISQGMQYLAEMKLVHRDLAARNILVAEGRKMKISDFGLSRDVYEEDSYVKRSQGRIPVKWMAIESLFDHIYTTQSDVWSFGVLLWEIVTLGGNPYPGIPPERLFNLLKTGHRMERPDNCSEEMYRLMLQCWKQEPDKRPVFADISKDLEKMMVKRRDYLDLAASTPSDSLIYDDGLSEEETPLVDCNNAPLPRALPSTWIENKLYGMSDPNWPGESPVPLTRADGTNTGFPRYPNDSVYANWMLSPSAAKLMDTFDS

[14] = target: T6, C-MET (Homo sapiens, UniProt P08581); assay: Kinase assay; type: biochemical; settings: average of duplicate measurements
[15] = target: ALK (Homo sapiens, UniProt Q9UM73); assay: Degradation assay; type: cell-based; settings: average of duplicate measurements
Procedure: (§3) However, the degradation selectivity of 9o often contrasts with its kinase binding selectivity as determined in cells treated with 9o where the kinase level was measurable by Western blot analysis. […] For example, FLT3, CHEK2, and FES, all with kinase binding at <10 nM, were only moderately or minimally degraded, if at all (Table 9).

[16] = target: T6, C-MET; assay: Degradation assay; type: cell-based; settings: average of duplicate measurements
Procedure: as §3

[17] = test system: CAMK2D; assay: Degradation assay; type: cell-based; settings: average of duplicate measurements
Procedure: as §3

[18] = target: CHEK2 (Homo sapiens, UniProt O96017); assay: Degradation assay; type: cell-based; settings: average of duplicate measurements
Procedure: as §3

[19] = target: T1, CLK1; assay: Degradation assay; type: cell-based; settings: average of duplicate measurements
Procedure: as §3

[20] = target: T4, EGFR; assay: Degradation assay; type: cell-based; settings: average of duplicate measurements
Procedure: as §3

[21] = target: T2, ERBB2; assay: Degradation assay; type: cell-based; settings: average of duplicate measurements
Procedure: as §3

[22] = target: ERBB4/HER4 (Homo sapiens, UniProt Q15303); assay: Degradation assay; type: cell-based; settings: average of duplicate measurements
Procedure: as §3

[23] = target: FAK/PTK2 (Homo sapiens, UniProt Q05397); assay: Degradation assay; type: cell-based; settings: average of duplicate measurements
Procedure: as §3

[24] = target: FER (Homo sapiens, UniProt P16591); assay: Degradation assay; type: cell-based; settings: average of duplicate measurements
Procedure: as §3

[25] = target: FES (Homo sapiens, UniProt P07332); assay: Degradation assay; type: cell-based; settings: average of duplicate measurements
Procedure: as §3

[26] = target: FLT3 (Homo sapiens, UniProt P36888); assay: Degradation assay; type: cell-based; settings: average of duplicate measurements
Procedure: as §3

[27] = target: T3, LTK; assay: Degradation assay; type: cell-based; settings: average of duplicate measurements
Procedure: as §3

[28] = target: T5, RET; assay: Degradation assay; type: cell-based; settings: average of duplicate measurements
Procedure: as §3

COc1cc(N2CCC(N3CCN(CC4CCN(c5ccc6c(c5)CN(C5CCC(=O)NC5=O)C6=O)CC4)CC3)CC2)ccc1Nc1ncc(Cl)c(Nc2ccccc2P(C)(C)=O)n1 (stereo not shown) [9o, 3-(5-(4-((4-(1-(4-((5-Chloro-4-((2-(dimethylphosphoryl)phenyl)amino)pyrimidin-2-yl)amino)-3-methoxyphenyl)piperidin-4-yl)piperazin-1-yl)methyl)piperidin-1-yl)-1-oxoisoindolin-2-yl)piperidine-2,6-dione]
IC50 [1]: 6.3 ± 2.1 nM
IC50 [2]: 0.4 ± 0.3 nM
IC50 [3]: 2.9 ± 0.5 nM
IC50 [4]: 58.4 ± 11.4 nM
logP [5]: 2.54
IC50 [6]: 10.9 nM
IC50 [7]: 34 nM
IC50 [8]: 35 nM
IC50 [9]: 42 nM
IC50 [10]: 48 nM
IC50 [11]: 54 nM
IC50 [12]: 69 nM
IC50 [13]: 82 nM
IC50 [14]: 95 nM
DC50 [15]: 1.7 nM
DC50 [16]: > 1000 nM
DC50 [17]: 264 nM
DC50 [18]: 187 nM
DC50 [19]: > 1000 nM
DC50 [20]: 255 nM
DC50 [21]: 474 nM
DC50 [22]: > 1000 nM
DC50 [23]: 1.5 nM
DC50 [24]: 17 nM
DC50 [25]: 320 nM
DC50 [26]: > 1000 nM
DC50 [27]: > 1000 nM
DC50 [28]: 58 nM
